Data published in PubChem BioAssay AID2060487 (Molecular Pharmacology Branch, DTP, NCI, 2025).
pIC50: −log10 of the molar value.

Test system: 997537-175-T-J1-PDC complex spheroid viability
Assay: Anticancer human tumor 997537-175-T-J1-PDC patient-derived colon adenocarcinoma cell line growth inhibition [GQUAD]
Conditions: for pIC50: curve of first compound; for viability, T/C: stronger effect = lower value
From the text: DNA G-quadruplex Stabilizer Agents in Combinations in Complex Spheroids
A high-throughput screen of multi-cell type tumor spheroids was designed to identify active combinations of DNA G-quadruplex stabilizer agents and targeted small molecules. Complex spheroids include a stromal component modeled by human endothelial cells (HUVEC) and fibroblasts modeled by human mesenchymal stem cells (MSCs). The concentration ranges selected for each drug and investigational agent were based upon clinically achievable concentrations if the clinical Cmax of the agent was known.
Compounds. The drugs and investigational agents: pidnarulex (CX-5461; NSC782164), APTO-253 (NSC789042), BRACO-19 (NSC847499), peposertib (NSC802822), ceralasertib (NSC780249), elimusertib (NSC800525), camonsertib (NSC841442), AZD-1390 (NSC803789), olaparib (NSC753686), talazoparib (NSC767125), ART-558 (NSC835418), sotorasib (NSC818433), MRTX-1133 (NSC836407), SN-38 (NSC673596), topotecan (NSC609699), etoposide (NSC141540), doxorubicin (NSC123127), gemcitabine (NSC613327), 5-fluorouracil (NSC19893), paclitaxel (NSC125973), vemurafenib (NSC761431), panobinostat (NSC761190), R-306465 (JNJ-16241199; NSC773264), adavosertib (NSC754352), TP-3654 (NSC805149), carboplatin (NSC241240), KSQ-4279 (NSC840948), and staurosporine (NSC755774) were obtained from the National Cancer Institute (NCI) Developmental Therapeutics Program Chemical Repository (34). The FDA-approved anticancer drug set is available from the NCI Developmental Therapeutics Program. […] The stock solutions were prepared in dimethyl sulfoxide (DMSO, Sigma-Aldrich, St. Louis, MO, cat. D2650) at 800-fold the tested concentration and stored at -70 degrees C prior to their use. All drugs and investigational agents were tested over a range starting from a high concentration at or near the clinical Cmax and decreasing in half-log increments. If the clinical Cmax for an agent had not been determined, the highest concentration tested was 10 microM.
2.3 Cell Culture. All cells were maintained in an incubator at 37 degrees C and 5% CO2 with 95% humidity. The PDC lines were cultured according to standard operating procedures established by the NCI PDMR. All PDCs were thawed and cultured in Matrigel-coated flasks prepared with a working solution of 1X Ham's F-12 nutrient mix, without supplementation (Invitrogen, cat. 11765054), 100 U/mL penicillin-streptomycin (Invitrogen, cat. 15140122), and 2.5% Matrigel (Corning Inc., cat. 354248) for the first three passages. The 857933-349-R-J2-PDC line was cultured in 6C/Colon 1B media, which includes advanced DMEM/F-12 (Thermo Fisher Scientific, cat. 12634028), 10 mM HEPES (Thermo Fisher Scientific, cat. 15630080), 1X GlutaMAX supplement (Thermo Fisher Scientific, cat. 35050061), 0.1 mg/mL primocin (InvivoGen, cat. ant-pm-2), 10% defined fetal bovine serum, heat inactivated (HyClone Laboratories Inc., cat. SH30070.03HI), 50% L-WRN conditioned media (ATCC, cat. CRL-3276), 1.25 mM N-Acetyl-L-cysteine (Sigma-Aldrich, cat. A9165), 10 mM nicotinamide (Sigma-Aldrich, cat. N0636), 1X B-27 supplement (Thermo Fisher Scientific, cat. 17504044), 1X N-2 supplement (Thermo Fisher Scientific, cat. 17502048), 10 microM Y-27632 dihydrochloride (Tocris Bioscience, cat. 1254), and 50 ng/mL human EGF recombinant protein (Thermo Fisher Scientific, cat. PHG0311). The 485176-168-R4-J1-PDC line was cultured in Panc media, which includes all 6C/Colon 1B media components plus 100 ng/mL human FGF-10 (Thermo Fisher Scientific, cat. 100-26), 500 nM SB-431542 (Selleckchem, cat. S1067), and gastrin (Tocris, cat. 3006).
[…]

[1] = second compound 0.0316 µM, first compound 0.0316 µM
[2] = second compound 0.0316 µM, first compound 0.1 µM
[3] = second compound 0.0316 µM, first compound 0.316 µM
[4] = second compound 0.0316 µM, first compound 1 µM
[5] = second compound 0.0316 µM, first compound 3.16 µM
[6] = second compound 0.0316 µM, first compound 10 µM
[7] = second compound 0.1 µM, first compound 0.0316 µM
[8] = second compound 0.1 µM, first compound 0.1 µM
[9] = second compound 0.1 µM, first compound 0.316 µM
[10] = second compound 0.1 µM, first compound 1 µM
[11] = second compound 0.1 µM, first compound 3.16 µM
[12] = second compound 0.1 µM, first compound 10 µM
[13] = second compound 0.316 µM, first compound 0.0316 µM
[14] = second compound 0.316 µM, first compound 0.1 µM
[15] = second compound 0.316 µM, first compound 0.316 µM
[16] = second compound 0.316 µM, first compound 1 µM
[17] = second compound 0.316 µM, first compound 3.16 µM
[18] = second compound 0.316 µM, first compound 10 µM
[19] = second compound 1 µM, first compound 0.0316 µM
[20] = second compound 1 µM, first compound 0.1 µM
[21] = second compound 1 µM, first compound 0.316 µM
[22] = second compound 1 µM, first compound 1 µM
[23] = second compound 1 µM, first compound 3.16 µM
[24] = second compound 1 µM, first compound 10 µM
[25] = second compound 3.16 µM, first compound 0.0316 µM
[26] = second compound 3.16 µM, first compound 0.1 µM
[27] = second compound 3.16 µM, first compound 0.316 µM
[28] = second compound 3.16 µM, first compound 1 µM
[29] = second compound 3.16 µM, first compound 3.16 µM
[30] = second compound 3.16 µM, first compound 10 µM
[31] = second compound 10 µM, first compound 0.0316 µM
[32] = second compound 10 µM, first compound 0.1 µM
[33] = second compound 10 µM, first compound 0.316 µM
[34] = second compound 10 µM, first compound 1 µM
[35] = second compound 10 µM, first compound 3.16 µM
[36] = second compound 10 µM, first compound 10 µM
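Also: spheroids exposed to the agents for 7 days.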
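For viability, T/C in this document: 100% = DMSO vehicle control viability.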

Compound `COc1ccc([C@@H](O)c2cc(-c3ncnc4cc(N5CCOCC5)ccc34)c(F)cc2Cl)nn1` + Cc1cnc(CNC(=O)c2c(=O)c3ccc(N4CCCN(C)CC4)nc3n3c2sc2ccccc23)cn1 has a pIC50 (second compound 0.0316 µM) of under 5.00, a pIC50 (second compound 0.1 µM) of under 5.00 and a pIC50 (second compound 0.316 µM) of under 5.00. It also gave a pIC50 (second compound 1 µM) of 5.01, a pIC50 (second compound 3.16 µM) of under 5.00 and a pIC50 (second compound 10 µM) of under 5.00. The viability, T/C [1] was 102%, the viability, T/C [2] was 93.6% and the viability, T/C [3] was 100%. The viability, T/C [4] was 63.3%, the viability, T/C [5] was 81.1% and the viability, T/C [6] was 63.9%. It also gave a viability, T/C [7] of 97.5%, a viability, T/C [8] of 94.7% and a viability, T/C [9] of 73.9%. The viability, T/C [10] was 84.7%, the viability, T/C [11] was 77.2% and the viability, T/C [12] was 86.9%. The viability, T/C [13] was 87.3%, the viability, T/C [14] was 106% and the viability, T/C [15] was 107%. For the same compound, the viability, T/C [16] was 94.8%, the viability, T/C [17] was 113% and the viability, T/C [18] was 65.2%. The viability, T/C [19] was 82.3%, the viability, T/C [20] was 87.5% and the viability, T/C [21] was 89.3%. It also gave a viability, T/C [22] of 87.8%, a viability, T/C [23] of 98.1% and a viability, T/C [24] of 49.5%. The viability, T/C [25] was 81.7%, the viability, T/C [26] was 88.8% and the viability, T/C [27] was 98.1%. The viability, T/C [28] was 107%, the viability, T/C [29] was 98.2% and the viability, T/C [30] was 71.2%. For the same compound, the viability, T/C [31] was 85.5%, the viability, T/C [32] was 75.9% and the viability, T/C [33] was 86.3%. The viability, T/C [34] was 117%, the viability, T/C [35] was 86.9% and the viability, T/C [36] was 72.8%.

For `O=C(c1cc(Cc2n[nH]c(=O)c3ccccc23)ccc1F)N1CCN(C(=O)C2CC2)CC1` + Cc1cnc(CNC(=O)c2c(=O)c3ccc(N4CCCN(C)CC4)nc3n3c2sc2ccccc23)cn1, the pIC50 (second compound 0.0316 µM) was under 5.00, the pIC50 (second compound 0.1 µM) was under 5.00 and the pIC50 (second compound 0.316 µM) was under 5.00. For the same compound, the pIC50 (second compound 1 µM) was under 5.00, the pIC50 (second compound 3.16 µM) was under 5.00 and the pIC50 (second compound 10 µM) was under 5.00. For the same compound, the viability, T/C [1] was 95.5%, the viability, T/C [2] was 87.9% and the viability, T/C [3] was 88.9%. It also gave a viability, T/C [4] of 85.1%, a viability, T/C [5] of 82.4% and a viability, T/C [6] of 102%. It also gave a viability, T/C [7] of 92.3%, a viability, T/C [8] of 92.5% and a viability, T/C [9] of 82.1%. For the same compound, the viability, T/C [10] was 72.5%, the viability, T/C [11] was 85.8% and the viability, T/C [12] was 68.9%. For the same compound, the viability, T/C [13] was 82%, the viability, T/C [14] was 96% and the viability, T/C [15] was 90.1%. It also gave a viability, T/C [16] of 99.8%, a viability, T/C [17] of 95.5% and a viability, T/C [18] of 93.8%. For the same compound, the viability, T/C [19] was 85.6%, the viability, T/C [20] was 106% and the viability, T/C [21] was 105%. The viability, T/C [22] was 89.5%, the viability, T/C [23] was 97% and the viability, T/C [24] was 108%. It also gave a viability, T/C [25] of 117%, a viability, T/C [26] of 108% and a viability, T/C [27] of 95.3%. For the same compound, the viability, T/C [28] was 84.4%, the viability, T/C [29] was 99% and the viability, T/C [30] was 89.5%. It also gave a viability, T/C [31] of 103%, a viability, T/C [32] of 95.2% and a viability, T/C [33] of 106%. The viability, T/C [34] was 116%, the viability, T/C [35] was 95.9% and the viability, T/C [36] was 101%.
